In PMC8588462, “Hybrid Chelator-Based PSMA Radiopharmaceuticals: Translational Approach” (Molecules, 2021) one finds IC50 data, which are given here for two molecules.

The target of this assay is T1, Prostate-specific membrane antigen (PSMA) (Homo sapiens, UniProt Q04609).
T1 construct: gene FOLH1; native full-length membrane protein on intact LNCaP prostate cancer cells; homodimer (known biology)
The experiment in a line: competitive radioligand binding, LNCaP cells, filter plates. Type of assay: cell-based. The following applies: 0.75 nM [68Ga]Ga-PSMA-10 tracer, room temperature, 45 min; non-labelled ligand (no metal). An excerpt:
competitive radioligand binding, LNCaP cells, filter plates on Prostate-specific membrane antigen (PSMA)

T1 sequence (Q04609 whole entry): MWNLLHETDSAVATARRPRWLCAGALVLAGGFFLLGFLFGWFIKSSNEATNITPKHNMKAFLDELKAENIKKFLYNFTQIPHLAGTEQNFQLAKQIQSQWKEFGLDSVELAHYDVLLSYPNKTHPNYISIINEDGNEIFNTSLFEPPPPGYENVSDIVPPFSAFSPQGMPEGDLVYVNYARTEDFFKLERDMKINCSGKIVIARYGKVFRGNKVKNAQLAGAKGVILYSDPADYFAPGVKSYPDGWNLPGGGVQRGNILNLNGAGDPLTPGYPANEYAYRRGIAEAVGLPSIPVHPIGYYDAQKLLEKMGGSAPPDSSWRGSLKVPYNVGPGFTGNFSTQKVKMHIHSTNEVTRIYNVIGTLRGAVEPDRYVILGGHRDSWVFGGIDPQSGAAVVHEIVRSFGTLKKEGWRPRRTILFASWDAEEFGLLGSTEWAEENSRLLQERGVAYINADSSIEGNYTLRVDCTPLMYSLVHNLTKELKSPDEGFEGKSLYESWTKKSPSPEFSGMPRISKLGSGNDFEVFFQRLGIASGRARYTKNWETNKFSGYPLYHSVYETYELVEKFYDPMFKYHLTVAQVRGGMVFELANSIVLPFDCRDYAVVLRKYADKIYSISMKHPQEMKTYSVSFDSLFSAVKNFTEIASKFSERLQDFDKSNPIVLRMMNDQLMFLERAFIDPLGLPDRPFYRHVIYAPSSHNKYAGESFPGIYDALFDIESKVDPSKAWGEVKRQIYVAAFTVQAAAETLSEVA

As to `CN(CC(=O)O)C1(CCCCC(=O)NCCNc2c(NCCCC[C@H](NC(=O)N[C@@H](CCC(=O)O)C(=O)O)C(=O)O)c(=O)c2=O)CN(CC(=O)O)CCN(CC(=O)O)C1` [compound 14, DATA^5m.SA.KuE], the half-inhibitory concentration (IC50) (usually the point on the concentration scale where inhibition reaches its midpoint) stood at 51.1 ± 5.5 nM.

Consider `O=C(O)CCc1ccc(O)c(CN(CCN(CC(=O)O)Cc2cc(CCC(=O)NCCCCCC(=O)NCCCC[C@H](NC(=O)N[C@@H](CCC(=O)O)C(=O)O)C(=O)O)ccc2O)CC(=O)O)c1` [PSMA-11], for which the 50% inhibitory concentration (IC50) is 26.2 ± 2.4 nM.
